Consider 25 compounds from ChEMBL document CHEMBL5584353, “Design, Synthesis, and Biological Evaluation of Potent EZH2/LSD1 Dual Inhibitors for Prostate Cancer” (J Med Chem, 2024).

One assay concerns LNCaP. As to the kind of experiment: Growth inhibition of human LNCaP cells incubated for 6 to 7 days by MTS assay. Type of assay: functional. To be noted: time 6-7 day.
A further assay concerns CWR22R. The assay can be described thus: Growth inhibition of human 22Rv1 cells incubated for 6 to 7 days by MTS assay. Conditions: time 6-7 day. It is filed as functional.
Assay [1] concerns the target Lysine-specific histone demethylase 1A (Homo sapiens, UniProt O60341). As to the kind of experiment: Inhibition of recombinant human LSD1 using Histone H3 as fluorometric substrate incubated for 30 mins by HRP based plate reader assay.
A further assay deals with PC-3. The assay can be described thus: Growth inhibition of human PC-3 cells incubated for 6 to 7 days by MTS assay. Type of assay: functional. To be noted: time 6-7 day.

Turning to `CCN(c1cc(-c2ccc([C@@H]3C[C@H]3N(C(=O)OC(C)(C)C)C3CCOCC3)cc2)cc(C(=O)NCc2c(C)cc(C)[nH]c2=O)c1C)C1CCOCC1` (racemic), the figures for the GI50 in the assay with LNCaP, in the assay with CWR22R and in the assay on PC-3 were 3.4 µM, 8.86 µM and 3.27 µM, respectively. Moreover, the IC50 in assay [1] was more than 3 µM.

As for `CCN(c1cc(-c2ccc([C@@H]3C[C@H]3N)cc2)cc(C(=O)NCc2c(C)cc(C)[nH]c2=O)c1C)C1CCOCC1` (racemic), the GI50 with LNCaP was determined as 6.83 µM; with CWR22R, 16.3 µM; in the assay with PC-3, 23.9 µM.

Take `CCN(c1cc(-c2ccc([C@@H]3C[C@H]3NCc3ccccc3F)cc2)cc(C(=O)NCc2c(C)cc(C)[nH]c2=O)c1C)C1CCOCC1` (racemic): the figures for the GI50 in the assay with LNCaP, in the assay with CWR22R and in the assay on PC-3 were 5.39 µM, 27.4 µM and more than 30 µM, respectively.

In the case of `CCN(c1cc(-c2ccc([C@@H]3C[C@H]3NC(=O)OC(C)(C)C)cc2)cc(C(=O)NCc2c(C)cc(C)[nH]c2=O)c1C)C1CCOCC1` (racemic), the GI50 in the assay with LNCaP turned out to be 3.62 µM; with CWR22R it was 5.12 µM; in the assay on PC-3, 2.45 µM. For the same compound, the IC50 in assay [1] was more than 3 µM.

As to `N[C@@H]1C[C@H]1c1ccccc1.N[C@H]1C[C@@H]1c1ccccc1` (racemic) [TRANYLCYPROMINE], the GI50 with LNCaP and in the assay with PC-3 was more than 30 µM throughout.

`CCN(c1cc(-c2ccc([C@@H]3C[C@H]3NC3CCCCC3)cc2)cc(C(=O)NCc2c(C)cc(C)[nH]c2=O)c1C)C1CCOCC1` (racemic): the concentration for 50% growth inhibition (GI50) was 5.34 µM with LNCaP, 4.61 µM with CWR22R and 12 µM in the assay with PC-3.

`CCN(c1cc(-c2ccc([C@@H]3C[C@H]3NCC(=O)N3CCOCC3)cc2)cc(C(=O)NCc2c(C)cc(C)[nH]c2=O)c1C)C1CCOCC1` (racemic): the GI50 in the assay on LNCaP was 6.01 µM; in the assay with CWR22R it was 19.7 µM; with PC-3, more than 30 µM.

Turning to `CCN(c1cc(-c2ccc([C@@H]3C[C@H]3NCc3ccccc3)cc2)cc(C(=O)NCc2c(C)cc(C)[nH]c2=O)c1C)C1CCOCC1` (racemic), the GI50 stood at 3.41 µM in the assay with LNCaP, 3.9 µM with CWR22R and 9.24 µM in the assay on PC-3.

Take `CCN(c1cc(-c2ccc([C@@H]3C[C@H]3NCC(=O)N3CCNCC3)cc2)cc(C(=O)NCc2c(C)cc(C)[nH]c2=O)c1C)C1CCOCC1` (racemic): the GI50 is 4.09 µM in the assay with LNCaP, 18.9 µM in the assay on CWR22R and more than 30 µM with PC-3.

Take `CCN(c1cc(-c2cccc([C@H]3C[C@@H]3N(C(=O)OC(C)(C)C)C3CCOCC3)c2)cc(C(=O)NCc2c(C)cc(C)[nH]c2=O)c1C)C1CCOCC1` (racemic): the GI50 with LNCaP came to 3.47 µM; in the assay with CWR22R, 6.92 µM; in the assay with PC-3, 3.87 µM. Further, in assay [1], the IC50 was more than 3 µM.

Turning to `CCN(c1cc(-c2cccc([C@H]3C[C@@H]3N(CC3CCOCC3)C(=O)OC(C)(C)C)c2)cc(C(=O)NCc2c(C)cc(C)[nH]c2=O)c1C)C1CCOCC1` (racemic), the GI50 in the assay with LNCaP was 3.38 µM; in the assay with CWR22R, 6.05 µM; in the assay on PC-3 it was 3.68 µM. For the same compound, the IC50 in assay [1] is more than 3 µM.

Take `CCN(c1cc(-c2ccc([C@@H]3C[C@H]3N(CC(=O)N3CCN(C(=O)OC(C)(C)C)CC3)C(=O)OC(C)(C)C)cc2)cc(C(=O)NCc2c(C)cc(C)[nH]c2=O)c1C)C1CCOCC1` (racemic): the figures for the GI50 in the assay with LNCaP, in the assay with CWR22R and in the assay on PC-3 were 6.49 µM, 13.1 µM and more than 30 µM, respectively. Further, the IC50 in assay [1] is more than 3 µM.

Take `CCN(c1cc(-c2ccc([C@@H]3C[C@H]3NC3CCOCC3)cc2)cc(C(=O)NCc2c(C)cc(C)[nH]c2=O)c1C)C1CCOCC1` (racemic): the GI50 in the assay with LNCaP is 3.42 µM; with CWR22R it was 4.39 µM; in the assay with PC-3 it was 12.7 µM.

For the compound `CCN(c1cc(-c2ccc([C@@H]3C[C@H]3NCC3CC3)cc2)cc(C(=O)NCc2c(C)cc(C)[nH]c2=O)c1C)C1CCOCC1` (racemic), the GI50 in the assay on LNCaP is 13.8 µM; with CWR22R it was 10.4 µM; in the assay on PC-3, more than 30 µM.

In the case of `CCN(c1cc(-c2ccc([C@@H]3C[C@H]3N(Cc3ccccc3OC)C(=O)OC(C)(C)C)cc2)cc(C(=O)NCc2c(C)cc(C)[nH]c2=O)c1C)C1CCOCC1` (racemic), the GI50 is 16.9 µM with LNCaP, 16.7 µM in the assay with CWR22R and more than 30 µM in the assay on PC-3. Also, in assay [1], the IC50 is more than 3 µM.

Take `CCN(c1cc(-c2cccc([C@H]3C[C@@H]3NC(=O)OC(C)(C)C)c2)cc(C(=O)NCc2c(C)cc(C)[nH]c2=O)c1C)C1CCOCC1` (racemic): the GI50 worked out at 7.22 µM with LNCaP, 21.7 µM with CWR22R and 19.3 µM in the assay with PC-3. For the same compound, the IC50 in assay [1] was more than 3 µM.

As to `CCN(c1cc(-c2ccc([C@@H]3C[C@H]3N(Cc3ccccc3)C(=O)OC(C)(C)C)cc2)cc(C(=O)NCc2c(C)cc(C)[nH]c2=O)c1C)C1CCOCC1` (racemic), the GI50 with LNCaP was 13.8 µM; in the assay with CWR22R, more than 30 µM; with PC-3, more than 30 µM. The IC50 in assay [1] was more than 3 µM.

Take `CCN(c1cc(-c2ccc([C@@H]3C[C@H]3N(Cc3ccccc3F)C(=O)OC(C)(C)C)cc2)cc(C(=O)NCc2c(C)cc(C)[nH]c2=O)c1C)C1CCOCC1` (racemic): the figures for the GI50 in the assay with LNCaP, with CWR22R and in the assay on PC-3 were 5.19 µM, 7.13 µM and 5.13 µM, respectively. In addition, the IC50 in assay [1] is more than 3 µM.

With `CCN(c1cc(-c2ccc([C@@H]3C[C@H]3N(C(=O)OC(C)(C)C)C3CCCCC3)cc2)cc(C(=O)NCc2c(C)cc(C)[nH]c2=O)c1C)C1CCOCC1` (racemic), the GI50 in the assay with LNCaP was determined as 5.02 µM; in the assay on CWR22R it was 24.3 µM; in the assay with PC-3, 18.1 µM. Also, the IC50 in assay [1] was more than 3 µM.

Turning to `CCN(c1cc(-c2ccc([C@@H]3C[C@H]3N(CC3CC3)C(=O)OC(C)(C)C)cc2)cc(C(=O)NCc2c(C)cc(C)[nH]c2=O)c1C)C1CCOCC1` (racemic), the GI50 was 9.73 µM in the assay with LNCaP, 18.8 µM in the assay on CWR22R and more than 30 µM in the assay with PC-3. Moreover, the IC50 in assay [1] was more than 3 µM.

For `CCN(c1cc(-c2cccc([C@@H]3C[C@H]3NC3CCOCC3)c2)cc(C(=O)NCc2c(C)cc(C)[nH]c2=O)c1C)C1CCOCC1` (racemic), the GI50 in the assay with LNCaP is 21 µM; with CWR22R it was 10.1 µM; in the assay with PC-3 it was more than 30 µM.

Turning to `CCN(c1cc(-c2cccc([C@@H]3C[C@H]3N)c2)cc(C(=O)NCc2c(C)cc(C)[nH]c2=O)c1C)C1CCOCC1` (racemic), the 50% growth inhibitory concentration (GI50) is 12.4 µM with LNCaP, 26.2 µM with CWR22R and 13.5 µM in the assay on PC-3. The IC50 in assay [1] is more than 3 µM.

`CCN(c1cc(-c2ccc([C@@H]3C[C@H]3NCc3ccccc3OC)cc2)cc(C(=O)NCc2c(C)cc(C)[nH]c2=O)c1C)C1CCOCC1` (racemic): the GI50 was found to be 5.45 µM in the assay with LNCaP, 4.87 µM in the assay with CWR22R and 6.41 µM in the assay on PC-3.

With `CCN(c1cc(-c2ccc([C@@H]3C[C@H]3N(CC(=O)N3CCOCC3)C(=O)OC(C)(C)C)cc2)cc(C(=O)NCc2c(C)cc(C)[nH]c2=O)c1C)C1CCOCC1` (racemic), the results for the GI50 in the assay on LNCaP, in the assay on CWR22R and in the assay with PC-3 were 5.11 µM, 7.83 µM and 12.6 µM, respectively. Moreover, the IC50 in assay [1] was more than 3 µM.

Regarding `CCN(c1cc(-c2cccc([C@@H]3C[C@H]3NCC3CCOCC3)c2)cc(C(=O)NCc2c(C)cc(C)[nH]c2=O)c1C)C1CCOCC1` (racemic), the results for the GI50 with LNCaP, with CWR22R and with PC-3 were 5.7 µM, 4.81 µM and 10.2 µM, respectively.
